Source: publication PMC10531311, “Anti-Inflammatory Activities of 8-Benzylaminoxanthines Showing High Adenosine A2A and Dual A1/A2A Receptor Affinity” (International Journal of Molecular Sciences, 2023)
Marks after values point to notes of the source that are not given here.

Assays:
human adenosine A2BR = target: T1, human adenosine A2BR (Homo sapiens, UniProt P29275); assay: Radioligand binding at human adenosine A2B receptor vs. [3H]PSB-603; conditions: for inhibition at 1 µM: CHO cells, read-out: A2BR vs. [³H]PSB-603 % Inhibition ± SEM at 1 µM; for Ki: human recombinant receptor in CHO cells, read-out: A2BR vs. [³H]PSB-603 Ki ± SEM
T1 construct: expressed in transfected cells; host or cells: CHO cells
T1 sequence (P29275 1-332): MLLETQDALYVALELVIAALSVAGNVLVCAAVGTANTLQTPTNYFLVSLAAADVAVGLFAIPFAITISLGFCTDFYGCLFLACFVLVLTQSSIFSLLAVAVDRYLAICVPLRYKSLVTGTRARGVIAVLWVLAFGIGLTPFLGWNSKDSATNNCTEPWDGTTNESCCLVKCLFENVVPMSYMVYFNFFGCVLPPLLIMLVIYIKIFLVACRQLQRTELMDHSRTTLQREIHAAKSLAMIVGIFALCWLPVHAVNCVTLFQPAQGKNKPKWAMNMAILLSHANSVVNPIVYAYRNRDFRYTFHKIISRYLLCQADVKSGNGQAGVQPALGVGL
Protocol: (§1) Affinities for adenosine receptors were evaluated in radioligand binding assays as previously described. Human adenosine receptors were stably expressed in CHO cells. The following radioligands were used: [^3H]2-chloro-N^6-cyclopentyladenosine ([^3H]CCPA) for A1R; [^3H]3-(3-hydroxypropyl)-7-methyl-8-(m-methoxystyryl)-1-propargylxanthine ([^3H]MSX-2) for A2AR; [^3H]8-(4-(4-(4-chlorophenyl)piperazine-1-sulfonyl)phenyl)-1-propylxanthine ([^3H]PSB-603) for A2BR; [^3H]phenyl-8-ethyl-4-methyl-(8R)-4,5,7,8-tetrahydro-1H-imidazo [2,1-i]purine-5-one ([^3H]PSB-11) for A3R. Initially, compounds were tested at a concentration of 1 µM. […] At least three independent experiments were performed. Data were analyzed using GraphPad PRISM version 5.0 or higher (Graph Pad, San Diego, CA, USA). Ki were calculated using the Cheng–Prusoff equation.

human adenosine A1R = target: T2, human adenosine A1R (Homo sapiens, UniProt P30542); assay: Radioligand binding at human adenosine A1 receptor vs. [3H]CCPA; conditions: for inhibition at 1 µM: CHO cells, read-out: A1R vs. [³H]CCPA % Inhibition ± SEM at 1 µM; for Ki: human recombinant receptor in CHO cells, read-out: A1R vs. [³H]CCPA Ki ± SEM
T2 construct: expressed in transfected cells; host or cells: CHO cells
T2 sequence (P30542 1-326): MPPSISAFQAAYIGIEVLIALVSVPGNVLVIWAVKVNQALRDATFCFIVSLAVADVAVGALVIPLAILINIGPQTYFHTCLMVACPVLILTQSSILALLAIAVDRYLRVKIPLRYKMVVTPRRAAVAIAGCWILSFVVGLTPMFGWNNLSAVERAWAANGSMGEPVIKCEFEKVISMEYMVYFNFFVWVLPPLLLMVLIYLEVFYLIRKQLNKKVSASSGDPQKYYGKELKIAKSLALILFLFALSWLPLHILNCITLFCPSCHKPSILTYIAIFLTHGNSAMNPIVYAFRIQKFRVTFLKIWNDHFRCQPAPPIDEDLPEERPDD
Protocol: as §1

human adenosine A3R = target: T3, human adenosine A3R (Homo sapiens, UniProt P0DMS8); assay: Radioligand binding at human adenosine A3 receptor vs. [3H]PSB-11; conditions: for inhibition at 1 µM: CHO cells, read-out: A3R vs. [H³]PSB-11 % Inhibition ± SEM at 1 µM; for Ki: human recombinant receptor in CHO cells, read-out: A3R vs. [H³]PSB-11 Ki ± SEM
T3 construct: expressed in transfected cells; host or cells: CHO cells
T3 sequence (P0DMS8 1-318): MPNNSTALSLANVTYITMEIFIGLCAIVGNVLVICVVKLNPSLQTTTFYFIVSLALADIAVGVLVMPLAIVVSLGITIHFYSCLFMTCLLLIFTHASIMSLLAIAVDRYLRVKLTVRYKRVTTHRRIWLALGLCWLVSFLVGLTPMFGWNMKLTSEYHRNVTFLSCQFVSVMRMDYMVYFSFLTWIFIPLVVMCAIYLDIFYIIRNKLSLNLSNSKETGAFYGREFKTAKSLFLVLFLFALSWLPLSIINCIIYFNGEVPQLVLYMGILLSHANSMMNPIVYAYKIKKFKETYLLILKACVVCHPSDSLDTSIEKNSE
Protocol: as §1

human adenosine A2AR = target: T4, human adenosine A2AR (Homo sapiens, UniProt P29274); assay: Radioligand binding at human adenosine A2A receptor vs. [3H]MSX-2; conditions: for A2AR vs. [³H]MSX-2 % Inhibition ± SEM at 1 µM: CHO cells; for Ki: human recombinant receptor in CHO cells, read-out: A2AR vs. [³H]MSX-2 Ki ± SEM
T4 construct: expressed in transfected cells; host or cells: CHO cells
Protocol: as §1

formalin test in mice = assay: Formalin test; type: in vivo, albino Swiss mice; conditions: mice
Protocol: Injection of formalin into the dorsal surface of the hind paw of a mouse produces a biphasic nocifensive behavioral response; i.e., licking, biting, flinching or lifting of the injected paw. The acute (neurogenic) nociceptive phase lasts for the first 5 min and is followed by a period of little activity for the next 10 min. The first phase of the test is directly associated with nociceptor stimulation and the development of neurogenic inflammation. The second (late) phase occurs between 15 and 30 min after formalin injection. The second phase depends on peripheral inflammation and the central sensitization of pain. Since this phase reflects the activation of inflammatory processes, the compounds active in this phase of the experiment also have an anti-inflammatory effect. The tested compounds 19, 22 and 24, were investigated in three doses: 10, 20 and 40 mg/kg bw. ASA (acetylsalicylic acid) was used as a reference compound and administered in doses of 50, 100 and 200 mg/kg. […] The strongest effect in this assay was produced by 24. […] In addition, this anti-nociceptive and anti-inflammatory effect was approximately 13.8 times greater than that observed for the reference compound (ASA). […] ASA also attenuated statistically significant pain responses in the late phases of the formalin test. […] The in vivo experiments were carried out on male albino Swiss mice weighing 18–26 g and male Wistar rats weighing 150–180 g. The animals were housed in constant temperature facilities exposed to a 12:12 light-dark cycle and maintained on a standard pellet diet and tap water given ad libitum. The control and experimental groups consisted of 6–8 animals each. The investigated compounds were intraperitoneally (ip) administered in the form of a suspension in 0.5% methylcellulose. Control animals received the equivalent volume of solvent. All procedures were conducted according to the guidelines of ICLAS (International Council on Laboratory Animals Science) and were approved by the Local Ethics Committee of the Jagiellonian University in Kraków. The mice were pretreated with the test compound or the vehicle and were allowed to acclimate in Plexiglas observation chambers (20 × 30 × 15 cm) for 30 min before the test. Then, 20 μL of a 5% formalin solution was intraplantarly injected into the right hind paw using a 26-gauge needle. Immediately after formalin injection, the animals were individually placed into glass beakers and were observed during the next 30 min. Time (in seconds) spent on licking or biting the injected paw in selected intervals, 0–5, 15–20, 20–25 and 25–30 min, was measured in each experimental group and was an indicator of nociceptive behavior [41]. The ED50 values and their confidence limits were estimated by the method of Litchfield and Wilcoxon.

T4 sequence (P29274 whole entry): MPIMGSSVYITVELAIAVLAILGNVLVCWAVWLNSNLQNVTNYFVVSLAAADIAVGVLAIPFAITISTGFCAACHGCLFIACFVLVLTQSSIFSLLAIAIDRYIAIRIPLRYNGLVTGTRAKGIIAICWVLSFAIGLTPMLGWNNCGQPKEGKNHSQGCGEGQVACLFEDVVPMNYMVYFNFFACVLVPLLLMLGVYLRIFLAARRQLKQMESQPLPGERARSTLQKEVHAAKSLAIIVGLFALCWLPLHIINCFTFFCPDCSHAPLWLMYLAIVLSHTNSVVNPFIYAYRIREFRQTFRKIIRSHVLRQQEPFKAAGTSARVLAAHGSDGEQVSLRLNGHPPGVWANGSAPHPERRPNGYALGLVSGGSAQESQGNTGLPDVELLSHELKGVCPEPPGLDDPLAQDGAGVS

SMILES | melting point | inhibition at 1 µM (human adenosine A2BR) | Ki (human adenosine A2BR) | inhibition at 1 µM (human adenosine A1R) | Ki (human adenosine A1R) | inhibition at 1 µM (human adenosine A3R) | Ki (human adenosine A3R) | A2AR vs. [³H]MSX-2 % Inhibition ± SEM at 1 µM (human adenosine A2AR) | Ki (human adenosine A2AR) | further results
Cn1c(NCc2ccccc2Cl)nc2c1c(=O)n(Cc1ccc(Cl)c(Cl)c1)c(=O)n2C [compound 11, 8-((2-Chlorobenzyl)amino)-1-(3,4-dichlorobenzyl)-3,7-dimethyl-3,7-dihydro-1H-purine-2,6-dione] | 198 to 203 °C | 4% | > 1000 nM | 10% | > 1000 nM | 40% | > 1000 nM | 23 ± 7% | > 1000 nM | 
Cn1c(NCc2ccccc2Cl)nc2c1c(=O)n(Cc1ccccc1)c(=O)n2C [compound 9] | 205 to 208 °C | 9% | > 1000 nM | 23% | > 1000 nM | 24% | > 1000 nM |  | 323 ± 150 nM | 
CCCCn1c(=O)c2c(nc(NCc3ccccc3Cl)n2C)n(C)c1=O [compound 6, 1-Butyl-8-((2-chlorobenzyl)amino)-3,7-dimethyl-3,7-dihydro-1H-purine-2,6-dione] | 181 to 183 °C | 32% | > 1000 nM | 21% | > 1000 nM | 11% | > 1000 nM |  | 318 ± 141 nM | 
CC(=O)Oc1ccccc1C(=O)O [ASA, acetylsalicylic acid, reference compound] |  |  |  |  |  |  |  |  |  | ED50 (formalin test in mice; Mus musculus, II (late) phase, method of Litchfield and Wilcoxon, read-out: calculated ED50 in the formalin test): 126 mg/kg; Early Phase Inhibition (%) (formalin test in mice; 50 mg/kg): 12.4%; Late Phase Inhibition (%) (formalin test in mice; 50 mg/kg): 10.0%; Licking of the Hind Paw Early Phase (0–5 min) Mean ± SEM (formalin test in mice; 50 mg/kg): 59.8 ± 6.3 s; Licking of the Hind Paw Late Phase (15–30 min) Mean ± SEM (formalin test in mice; 50 mg/kg): 108.7 ± 13.8 s; Early Phase Inhibition (%) (formalin test in mice; 100 mg/kg): 14.3%; Late Phase Inhibition (%) (formalin test in mice; 100 mg/kg): 50.0%; Licking of the Hind Paw Early Phase (0–5 min) Mean ± SEM (formalin test in mice; 100 mg/kg): 58.5 ± 4.5 s; Licking of the Hind Paw Late Phase (15–30 min) Mean ± SEM (formalin test in mice; 100 mg/kg): 60.3 ± 9.5 ^c sec; Late Phase Inhibition (%) (formalin test in mice; 200 mg/kg): 66.3%; Licking of the Hind Paw Early Phase (0–5 min) Mean ± SEM (formalin test in mice; 200 mg/kg): 62.0 ± 8.6 s; Licking of the Hind Paw Late Phase (15–30 min) Mean ± SEM (formalin test in mice; 200 mg/kg): 40.6 ± 14.0 ^c sec
CCCCCn1c(=O)c2c(nc(NCc3ccccc3Cl)n2C)n(C)c1=O [compound 7, 8-((2-Chlorobenzyl)amino)-3,7-dimethyl-1-pentyl-3,7-dihydro-1H-purine-2,6-dione] | 177 to 180 °C | 41% | > 1000 nM | 35% | > 1000 nM | 13% | > 1000 nM | 38 ± 4% | > 1000 nM | 
Cn1c(NCc2ccccc2Cl)nc2c1c(=O)n(Cc1ccc(Cl)cc1)c(=O)n2C [compound 10, 1-(4-Chlorobenzyl)-8-((2-chlorobenzyl)amino)-3,7-dimethyl-3,7-dihydro-1H-purine-2,6-dione] | 228 to 230 °C | 14% | > 1000 nM | 12% | > 1000 nM | 31% | > 1000 nM |  | > 1000 nM | 
C#CCn1c(=O)c2c(nc(NCc3ccccc3F)n2C)n(C2CC2)c1=O [compound 28, 3-Cyclopropyl-8-((2-fluorobenzyl)amino)-7-methyl-1-(prop-2-yn-1-yl)-3,7-dihydro-1H-purine-2,6-dione] | 190 to 192 °C | 14% | > 1000 nM |  | 166 ± 65 nM | -2% | > 1000 nM |  | 386 ± 61 nM | 
CCCCCCn1c(=O)c2c(nc(NCc3ccccc3Cl)n2C)n(C)c1=O [compound 8, 8-((2-Chlorobenzyl)amino)-1-hexyl-3,7-dimethyl-3,7-dihydro-1H-purine-2,6-dione] | 191 to 194 °C | 13% | > 1000 nM | 17% | > 1000 nM | 31% | > 1000 nM | 9 ± 8% | > 1000 nM | 
C#CCn1c(=O)c2c(nc(NCc3ccccc3Cl)n2C)n(C2CC2)c1=O [compound 27, 8-((2-Chlorobenzyl)amino)-3-cyclopropyl-7-methyl-1-(prop-2-yn-1-yl)-3,7-dihydro-1H-purine-2,6-dione] | 172 to 173 °C | 9% | > 1000 nM |  | 247 ± 43 nM | 16% | > 1000 nM |  | 311 ± 167 nM | 
C#CCn1c(=O)c2c(nc(NCc3c(F)cccc3Cl)n2C)n(C2CC2)c1=O [compound 29, 8-((2-Chloro-6-fluorobenzyl)amino)-3-cyclopropyl-7-methyl-1-(prop-2-yn-1-yl)-3,7-dihydro-1H-purine-2,6-dione] | 186 to 187 °C | 16% | > 1000 nM |  | 78 ± 9 nM | 16% | > 1000 nM |  | 204 ± 38 nM | 
